Results: patent US4471131A, “Novel silyl esters of N-phosphonomethylglycine” (Monsanto Company, priority 1983, dated 1984)

Key:
Experiment in all cases: post-emergence herbicidal activity, greenhouse
Assay type in all cases: in vivo
Conditions in all cases: Table II
Velvetleaf = tested on: Velvetleaf
Description: (§1) A good grade of top soil is placed in aluminum pans having holes in the bottom and compacted to a depth of 0.95 to 1.27 cm. from the top of the pan. A predetermined number of seeds of each of several dicotyledonous and moncotyledonous annual plant species and/or vegetative propagules for the perennial plant species were placed on the soil and pressed into the soil surface. The seeds and/or vegetative propagules are covered with soil and leveled. The pans are then placed on a sand bench in the greenhouse and watered from below as needed. After the plants reach the desired age (two to three weeks), each pan, except for the control pans, is removed individually to a spraying chamber and sprayed by means of an atomizer at the rates noted. In the spray solution is an amount of an emulsifying agent mixture to give a spray solution or suspension which contains about 0.4% by weight of the emulsifier. The spray solution or suspension contains a sufficient amount of the candidate chemical in order to give application rates corresponding to those set forth in the tables. The pans were returned to the greenhouse and watered as before and the injury to the plants as compared to the control is observed at approximately two and four weeks and the results recorded. In the tables, WAT means "weeks after treatment."
(§2) The post-emergent herbicidal activity index used in Tables II and III is as follows:
(§3) The plant species utilized in these tests are identified by letter in accordance with the following legend: […]

Barnyardgrass = tested on: Barnyardgrass
Description: as §1, §2, §3

Yellow Nutsedge = tested on: Yellow Nutsedge
Description: as §1, §2, §3

Cocklebur = tested on: Cocklebur
Description: as §1, §2, §3

Morningglory = tested on: Morningglory
Description: as §1, §2, §3

Canada Thistle = tested on: Canada Thistle
Description: as §1, §2, §3

Common Lambsquarters = tested on: Common Lambsquarters
Description: as §1, §2, §3

Downy Brome = tested on: Downy Brome
Description: as §1, §2, §3

Quackgrass = tested on: Quackgrass
Description: as §1, §2, §3

Pennsylvania Smartweed = tested on: Pennsylvania Smartweed
Description: as §1, §2, §3

Johnsongrass = tested on: Johnsongrass
Description: as §1, §2, §3

[1] = 2 WAT, 5.6 kg/h, formulated immediately prior to treatment
[2] = 2 WAT, 11.2 kg/h, formulated immediately prior to treatment
[3] = 4 WAT, 5.6 kg/h, formulated immediately prior to treatment
[4] = 4 WAT, 11.2 kg/h, formulated immediately prior to treatment
[5] = 2 WAT, 5.6 kg/h, formulated in anhydrous tetrahydrofuran
[6] = 2 WAT, 11.2 kg/h, formulated in anhydrous tetrahydrofuran
[7] = 4 WAT, 5.6 kg/h, formulated in anhydrous tetrahydrofuran
[8] = 4 WAT, 11.2 kg/h, formulated in anhydrous tetrahydrofuran

CC(C)(C)[Si](C)(C)OC(=O)CNCP(=O)(O[Si](C)(C)C(C)(C)C)O[Si](C)(C)C(C)(C)C [Ex. 9, Glycine, N--((Bis[((1,1-Dimethylethyl)Dimethylsilyl)Oxy]Phosphinyl)Methyl),-(1,1-Dimethylethyl)Dimethylsilylester]
0 (0-24% inhibition): Plant Response Index (E) (Common Lambsquarters; [1]) | Plant Response Index (E) (Common Lambsquarters; [2]) | Plant Response Index (J) (Downy Brome; [1]) | Plant Response Index (H) (Quackgrass; [1]) | Plant Response Index (H) (Quackgrass; [2]) | Plant Response Index (H) (Quackgrass; [3]) | Plant Response Index (H) (Quackgrass; [4])
1 (25-49% inhibition): Plant Response Index (C) (Velvetleaf; [1]) | Plant Response Index (C) (Velvetleaf; [3]) | Plant Response Index (K) (Barnyardgrass; [1]) | Plant Response Index (K) (Barnyardgrass; [2]) | Plant Response Index (K) (Barnyardgrass; [3]) | Plant Response Index (G) (Yellow Nutsedge; [1]) | Plant Response Index (G) (Yellow Nutsedge; [2]) | Plant Response Index (B) (Cocklebur; [1]) | Plant Response Index (A) (Canada Thistle; [1]) | Plant Response Index (A) (Canada Thistle; [2]) | Plant Response Index (A) (Canada Thistle; [4]) | Plant Response Index (E) (Common Lambsquarters; [3]) | Plant Response Index (J) (Downy Brome; [2]) | Plant Response Index (J) (Downy Brome; [3]) | Plant Response Index (J) (Downy Brome; [4]) | Plant Response Index (F) (Pennsylvania Smartweed; [1]) | Plant Response Index (F) (Pennsylvania Smartweed; [2]) | Plant Response Index (F) (Pennsylvania Smartweed; [3]) | Plant Response Index (F) (Pennsylvania Smartweed; [4]) | Plant Response Index (I) (Johnsongrass; [1]) | Plant Response Index (I) (Johnsongrass; [2]) | Plant Response Index (I) (Johnsongrass; [3]) | Plant Response Index (I) (Johnsongrass; [4])
2 (50-74% inhibition): Plant Response Index (C) (Velvetleaf; [2]) | Plant Response Index (C) (Velvetleaf; [4]) | Plant Response Index (K) (Barnyardgrass; [4]) | Plant Response Index (G) (Yellow Nutsedge; [3]) | Plant Response Index (G) (Yellow Nutsedge; [4]) | Plant Response Index (B) (Cocklebur; [2]) | Plant Response Index (B) (Cocklebur; [3]) | Plant Response Index (B) (Cocklebur; [4]) | Plant Response Index (D) (Morningglory; [1]) | Plant Response Index (D) (Morningglory; [2]) | Plant Response Index (D) (Morningglory; [3]) | Plant Response Index (D) (Morningglory; [4]) | Plant Response Index (A) (Canada Thistle; [3]) | Plant Response Index (E) (Common Lambsquarters; [4])

Glycine, N-((Bis[((1,1-Dimethylethyl)Diphenylsilyl)oxy]-Phosphinyl)-Methyl)-, [(1,1-Dimethylethyl)Diphenylsilyl]Ester, (75%); Silanol, (1,1-Dimethylethyl)Diphenyl-, (25%-Mixture) [Ex. 4]
3 (75-99% inhibition): Plant Response Index (E) (Common Lambsquarters; [8])
2 (50-74% inhibition): Plant Response Index (G) (Yellow Nutsedge; [8]) | Plant Response Index (B) (Cocklebur; [6]) | Plant Response Index (B) (Cocklebur; [8]) | Plant Response Index (D) (Morningglory; [6]) | Plant Response Index (D) (Morningglory; [8]) | Plant Response Index (A) (Canada Thistle; [6]) | Plant Response Index (A) (Canada Thistle; [8]) | Plant Response Index (E) (Common Lambsquarters; [6]) | Plant Response Index (H) (Quackgrass; [8]) | Plant Response Index (F) (Pennsylvania Smartweed; [6]) | Plant Response Index (F) (Pennsylvania Smartweed; [8])
1 (25-49% inhibition): Plant Response Index (C) (Velvetleaf; [6]) | Plant Response Index (C) (Velvetleaf; [8]) | Plant Response Index (K) (Barnyardgrass; [5]) | Plant Response Index (K) (Barnyardgrass; [6]) | Plant Response Index (K) (Barnyardgrass; [7]) | Plant Response Index (K) (Barnyardgrass; [8]) | Plant Response Index (G) (Yellow Nutsedge; [7]) | Plant Response Index (B) (Cocklebur; [5]) | Plant Response Index (B) (Cocklebur; [7]) | Plant Response Index (D) (Morningglory; [5]) | Plant Response Index (D) (Morningglory; [7]) | Plant Response Index (H) (Quackgrass; [6]) | Plant Response Index (F) (Pennsylvania Smartweed; [5]) | Plant Response Index (I) (Johnsongrass; [8])
0 (0-24% inhibition): Plant Response Index (C) (Velvetleaf; [5]) | Plant Response Index (C) (Velvetleaf; [7]) | Plant Response Index (G) (Yellow Nutsedge; [5]) | Plant Response Index (G) (Yellow Nutsedge; [6]) | Plant Response Index (A) (Canada Thistle; [5]) | Plant Response Index (A) (Canada Thistle; [7]) | Plant Response Index (E) (Common Lambsquarters; [5]) | Plant Response Index (E) (Common Lambsquarters; [7]) | Plant Response Index (J) (Downy Brome; [5]) | Plant Response Index (J) (Downy Brome; [6]) | Plant Response Index (J) (Downy Brome; [7]) | Plant Response Index (J) (Downy Brome; [8]) | Plant Response Index (H) (Quackgrass; [5]) | Plant Response Index (H) (Quackgrass; [7]) | Plant Response Index (F) (Pennsylvania Smartweed; [7]) | Plant Response Index (I) (Johnsongrass; [5]) | Plant Response Index (I) (Johnsongrass; [6]) | Plant Response Index (I) (Johnsongrass; [7])
